Measurements: US20210017607A1, “Methods of Predicting Responsiveness to Cancer Therapies” (The University of Chicago, priority 2019, published 2021)

Test system: Myc-CAP (STING^lo) cells
Test: Annexin V-PI viability assay
Assay type: cell-based, mouse
Conditions: rucaparib 500 nM, buparlisib 1 μM, singly and in combination
Source text: FIGS. 29A-29M. PARPi alone induces DNA DSBs, but not apoptosis even in combination with PI3Ki in Myc-CAP (STING^lo) cancer cells; PARPi/PI3Ki combination induces intracellular DNA DSBs and proportionate release of MV surface-associated DNA DSBs from B6-Myc (STINGhi) cancer cells without affecting cellular viability; PARPi/PI3K treatment activates tumor-cell extrinsic cGAS/STING pathway within TAMs in vivo via MV surface-associated DNA DSBs released from tumor cells. Myc-CAP cancer cells were treated with the indicated drugs singly or in combination for 36 hours. (29A) Cells were stained with anti-mouse specific p-γH2AX antibody and a fluorescently labeled secondary antibody for determination of DNA DSBs, which were quantified by confocal microscopy. (29B) Protein extracts from cells in 29A were analyzed for the indicated pharmacodynamic biomarkers by western blotting; (29C) Annexin V-PI staining was done to assess frequency of live cells (Annexin V^− PI^−) following drug treatment. (29D) Ultracentrifugation was utilized to purify microvesicles (MVs) from supernatants in treatment groups in (29A) and associated DNA DSBs was quantified by Nanodrop®. Independent experiments n=2. (29E) Ultracentrifugation was utilized to purify MVs from supernatants in indicated treatment groups in FIG. 17A, and associated DNA DSBs were quantified by Nanodrop®; n=2 independent experiments. […]

SMILES | viability of cells
Nc1cc(C(F)(F)F)c(-c2cc(N3CCOCC3)nc(N3CCOCC3)n2)cn1 [buparlisib] | no change in the viability
CNCc1ccc(-c2[nH]c3cc(F)cc4c3c2CCNC4=O)cc1 [rucaparib] | no change in the viability
